Laboratory results published in US5191079A, “Quinolinecarboxylic acid derivatives” (priority 1990, dated 1993).
Converted amounts (≈) assume the structure as drawn. Read-outs that look alike come from different tables or passages of the source.

Legend:
[1] = test system: Staphylococcus aureus IID 803; test: Effect on treatment of general infectious disease (systemic infection in mice), Experiment 4; assay type: in vivo, Staphylococcus aureus; ddY male mice
Experimental: (§1) Staphylococcus aureus IID 803
(§2) The test microorganism was subjected to standing culture in Brain heart infusion broth (manufactured by DIFCO) at 37° C. for 16 to 18 hours. The culture was then diluted with PBS (Dulbecco's phosphate buffered saline) to adjust the concentration of bacteria to 3×10^7 CFU/ml. The mixture was mixed with an equivalent amount of 10% (w/v) Mucin (BACTO MUCIN BACTERIOLOGICAL, manufactured by Difco Co.) to prepare a bacterial suspension. The thus prepared bacterial suspension (0.5 ml each) was intraperitoneally inoculated to ddY male mice (5 weeks age, weighing 22-29 g, 10 mice in each group), to infect the animals, by which systemic infectious model was prepared. One hour after the infection, a suspension of the test compound in 1% (w/v) aqueous gum arabic was orally adiministered to mice.
The mice were daily observed for one week, and from the survival number of mice after one week, the 50% effective dose (ED50) was calculated by Weil method.

bone marrow [2] = test: Micronucleus test, Experiment 8; assay type: in vivo, ICR male mice; conditions: oral 300, 1000, 3000 mg/kg, mouse bone marrow, 24 or 48 hours
Experimental: The compound (B) or (E) of the present invention was suspended in 1% aqueous gum arabic. The suspension was orally administered to ICR male mice (7-8 weeks age, weighing 30 to 39 g, 5 mice in each group) at a rate of 3000, 1000 or 300 mg/kg body weight of the test compound (B) or (E). After 24 hours or 48 hours, these mice were killed and the bone marrow was collected and observed the presence of micronuclei.

[3] = test system: Staphylococcus epidermidis IAM 1296; test: MIC, Experiment 1; assay type: cell-based; conditions: IAM1296, S. epidermidis IAM 1296, Gram +, read-out: Min. inhib. concentr. (MIC)
Experimental: The compounds of the present invention ([…] and Q) were each dissolved in dimethylsulfoxide to prepare a solution of 5000 μg/ml in concentration. The compounds of the present invention (I, J and K) and the known compound (Y) were each dissolved in sterilized distilled water to prepare a solution of 5000 μg/ml in concentration. […] The test was carried out by a method as appointed by Japan Society of Chemotherapy [cf. Chemotherapy, 29, 76-79 (1981), TOKYO]. As to Streptococcus pneumoniae and Streptococcus pyogenes, Brain heart infusion broth (manufactured by DIFCO) was used as the medium for the preculture thereof, and a heart infusion agar medium containing 5% defibrinated horse blood (manufactured by Nissui Seiyaku K. K., Japan) was used as the medium for the measurement of minimum inhibitory concentration (MIC). As to other microorganisms, a sensitivity test broth (manufactured by Nissui Seiyaku K. K.) was used as the medium for the preculture thereof, and a sensitivity test agar medium (manufactured by Nissui Seiyaku K. K.) was used as the medium for the measurement of MIC.

[4] = test system: clinically isolated Staphylococcus aureus; test: In vitro antibacterial activity against clinical isolates, Experiment 2; assay type: cell-based; conditions: for MIC50: 50% of strains, read-out: MIC50
In short: (§3)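 MIC was determined on sensitivity test agar after preculture of each clinical isolate in sensitivity test broth. Test compounds were prepared as 1000 μg/ml standard (stock) solutions in sterilized distilled water. Isolates were collected between Nov. 1988 and Jun. 1989.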

[5] = test system: clinically isolated Enterococcus faecalis; test: as above; assay type: cell-based; conditions: for MIC50: 50% of strains, read-out: MIC50
In short: as §3

[6] = test system: clinically isolated Enterococcus faecium; test: as above; assay type: cell-based
In short: as §3

[7] = Acute toxicity, Experiment 5; assay type: in vivo; conditions: oral, 2000 mg/kg, one week
Experimental: The compound (A) or (B) of the present invention was suspended in distilled water to prepare a suspension in concentration of 200 mg/ml and the compound (C) was suspended in distilled water to prepare a suspension in concentration of 100 mg/ml. The suspension was orally administered to ddY male mice (5 weeks age, weighing 19 to 24 g, 5 mice in each group), which had been fasted for 18 hours, at a rate of 2000 mg/kg body weight of the test compound.

[8] = test system: Staphylococcus aureus IID 803; test: Effect on treatment of general infectious disease (systemic infection in mice), Experiment 3; assay type: in vivo, Staphylococcus aureus; ddY male mice; conditions: for protective effects against infection: Experiment 3, in words; for ED50: Staphylococcus aureus, IID803, 168 h, oral, 1 h after i.p. infection, mice, survival after one week, average of several tests, read-out: 50% effective dose (ED50)
Experimental: as §1
as §2, with “to 4×10^7 -8×10^7” for “to 3×10^7”, “weighing 24-27” for “weighing 22-29”, “g, 5” for “g, 10”, “prepared.” for “prepared. One hour after the infection, a suspension of the test compound in 1% (w/v) aqueous gum arabic was orally adiministered to mice.”
The mice were daily observed for one week, and from the survival number of mice after one week, the 50% effective dose (ED50) was calculated by Weil method. This test was repeated several times and the average of ED50 was calculated.

bone marrow [9] = test: Micronucleus test, Experiment 7; assay type: in vivo, ICR male mice; conditions: oral 100 to 3000 mg/kg, mouse bone marrow, 24 hours
Experimental: 9,1-(Methylimino)methano-7-fluoro-8-(2-fluoromethylmorpholino)-5-oxo-5H-thiazolo[3,2-a]quinoline-4-carboxylic acid (compound of Example 3) [the compound (C) of the present invention] was suspended in sterilized distilled water. The suspension was orally administered to ICR male mice (8 weeks age, weighing 30 to 36 g, 3 mice in each group) at a rate of 3000, 1000, 300 or 100 mg/kg body weight of the test compound (C). After 24 hours, these mice were killed and the bone marrow was collected and observed the presence of micronuclei.

[10] = 25 clinical strains S. aureus incl. 16 methicillin resistant
[11] = 25 clinical strains E. faecalis
[12] = 25 clinical strains S. aureus incl. 16 methicillin resistant, 90% of strains, read-out: MIC90
[13] = 25 clinical strains E. faecalis, 90% of strains, read-out: MIC90
[14] = 25 clinical strains E. faecium, 50% of strains, read-out: MIC50
[15] = 25 clinical strains E. faecium, 90% of strains, read-out: MIC90

| Compound | micronucleus inducing activity (bone marrow [2]) | MIC [3] [µg/mL] | MIC90 [4] [µg/mL] | MIC [4, 10] [µg/mL] | MIC50 [4, 10] [µg/mL] | MIC [5, 11] [µg/mL] | MIC50 [5, 11] [µg/mL] | MIC50 [6] [µg/mL] | MIC90 [6] [µg/mL] | MIC ([6]; 25 clinical strains E. faecium) [µg/mL] | death of mice [7] | MIC90 [4, 12] [µg/mL] | MIC90 [5, 13] [µg/mL] | MIC50 [6, 14] [µg/mL] | MIC90 [6, 15] [µg/mL] | protective effects against infection [8] | ED50 [8] [mg/kg] | further results |
| --- | --- | --- | --- | --- | --- | --- | --- | --- | --- | --- | --- | --- | --- | --- | --- | --- | --- | --- |
| COCC1CN(c2c(F)cc3c(=O)c(C(=O)O)c4scc5n4c3c2N(C)C5)CCO1 (stereo not drawn) [Compound (E), 9,1-(Methylimino)methano-7-fluoro-8-(2-methoxymethylmorpholino)-5-oxo-5H-thiazolo[3,2-a]quinoline-4-carboxylic acid] | no nucleus inducing activity | 0.05 (≈ 0.115 µM) | 0.78 (≈ 1.8 µM) | 0.006 to 0.78 (≈ 0.0138 to 1.8 µM) | 0.013 (≈ 0.03 µM) | 0.1 to 6.25 (≈ 0.231 to 14.4 µM) | 0.2 (≈ 0.461 µM) | 3.13 (≈ 7.22 µM) | 6.25 (≈ 14.4 µM) | 0.1 to 12.5 (≈ 0.231 to 28.8 µM) | – | – | – | – | – | – | – | protective effects against infection ([1]; Experiment 4, in words): excellent protective effects against infection; ED50 ([1]; Staphylococcus aureus, IID803, 168 h, oral, 1 h after i.p. infection, mice, survival after one week, 3×10^7 CFU/ml, read-out: 50% effective dose (ED50)): 1.7 mg/kg; MIC90 [5]: 6.25 µg/mL (≈ 14.4 µM) |
| CN1Cc2csc3c(C(=O)O)c(=O)c4cc(F)c(N5CCOC(CF)C5)c1c4n23 (stereo not drawn) [Compound (C), 9,1-(Methylimino)methano-7-fluoro-8-(2-fluoromethylmorpholino)-5-oxo-5H-thiazolo[3,2-a]quinoline-4-carboxylic acid] | – | 0.025 (≈ 0.0593 µM) | – | 0.006 to 0.2 (≈ 0.0142 to 0.475 µM) | 0.013 (≈ 0.0308 µM) | 0.05 to 3.13 (≈ 0.119 to 7.43 µM) | 0.1 (≈ 0.237 µM) | – | – | 0.05 to 6.25 (≈ 0.119 to 14.8 µM) | no death of mice was observed | 0.2 (≈ 0.475 µM) | 3.13 (≈ 7.43 µM) | 0.78 (≈ 1.85 µM) | 3.13 (≈ 7.43 µM) | excellent protective effects against infection | 1.9 | micronucleus inducing activity (bone marrow [9]): no nucleus inducing activity |
| CN1Cc2csc3c(C(=O)O)c(=O)c4cc(F)c(N5CCOC(CO)C5)c1c4n23 (stereo not drawn) [Compound (B), 9,1-(Methylimino)methano-7-fluoro-8-(2-hydroxymethylmorpholino)-5-oxo-5H-thiazolo[3,2-a]quinoline-4-carboxylic acid] | no nucleus inducing activity | 0.05 (≈ 0.119 µM) | 0.78 (≈ 1.86 µM) | 0.006 to 0.78 (≈ 0.0143 to 1.86 µM) | 0.013 (≈ 0.031 µM) | 0.05 to 3.13 (≈ 0.119 to 7.46 µM) | 0.2 (≈ 0.477 µM) | 1.56 (≈ 3.72 µM) | 6.25 (≈ 14.9 µM) | 0.1 to 25 (≈ 0.238 to 59.6 µM) | no death of mice was observed | – | 3.13 (≈ 7.46 µM) | – | – | excellent protective effects against infection | 5.1 | – |
| CC1CN(c2c(F)cc3c(=O)c(C(=O)O)c4scc5n4c3c2N(C)C5)CCO1 (stereo not drawn) [Compound (A), 9,1-(Methylimino)methano-7-fluoro-8-(2-methylmorpholino)-5-oxo-5H-thiazolo[3,2-a]quinoline-4-carboxylic acid] | – | 0.05 (≈ 0.124 µM) | – | 0.006 to 0.2 (≈ 0.0149 to 0.496 µM) | ≤ 0.006 | 0.025 to 3.13 (≈ 0.062 to 7.76 µM) | 0.1 (≈ 0.248 µM) | – | – | 0.05 to 6.25 (≈ 0.124 to 15.5 µM) | no death of mice was observed | 0.2 (≈ 0.496 µM) | 3.13 (≈ 7.76 µM) | 0.78 (≈ 1.93 µM) | 3.13 (≈ 7.76 µM) | excellent protective effects against infection | 3.5 | – |
